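48-hour exposure; five concentrations; linearly interpolated endpoints. The concentration for 50% growth inhibition is given as GI50.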 The source made the active and inactive calls. No stated cut-off is given here; in the data, active = GI50 up to about 1.1 µM and inactive = higher.
Legend:
Experiment in all cases: NCI anticancer screen, dose series, 48 h
OVCAR-8 = tested on: OVCAR-8
SN12C = tested on: SN12C
U-251 = tested on: U-251
IGROV-1 = tested on: IGROV-1
TK-10 = tested on: TK-10
SW-620 = tested on: SW-620
K562 = tested on: K562
SF-268 = tested on: SF-268
SK-MEL-2 = tested on: SK-MEL-2
UO-31 = tested on: UO-31
OVCAR-4 = tested on: OVCAR-4
SF-295 = tested on: SF-295
MOLT-4 = tested on: MOLT-4
A498 = tested on: A498
NCI-H226 = tested on: NCI-H226
ACHN = tested on: ACHN
EKVX = tested on: EKVX
SK-MEL-5 = tested on: SK-MEL-5
HL-60 = tested on: HL-60
KM12 = tested on: KM12
HT-29 = tested on: HT-29
CCRF-CEM = tested on: CCRF-CEM
SK-OV-3 = tested on: SK-OV-3
NCI/ADR-RES = tested on: NCI/ADR-RES
UACC-257 = tested on: UACC-257
DU-145 = tested on: DU-145
HCT-15 = tested on: HCT-15
Malme-3M = tested on: Malme-3M
OVCAR-3 = tested on: OVCAR-3
NCI-H460 = tested on: NCI-H460
MCF7 = tested on: MCF7
MDA-N = tested on: MDA-N
SF-539 = tested on: SF-539
Hs-578T = tested on: Hs-578T
OVCAR-5 = tested on: OVCAR-5
CAKI-1 = tested on: CAKI-1
MDA-MB-231 = tested on: MDA-MB-231
NCI-H522 = tested on: NCI-H522
SK-MEL-28 = tested on: SK-MEL-28
NCI-H23 = tested on: NCI-H23
M14 = tested on: M14
786-0 = tested on: 786-0
A549 = tested on: A549
SNB-75 = tested on: SNB-75
HOP-92 = tested on: HOP-92
SNB-19 = tested on: SNB-19
PC-3 = tested on: PC-3
COLO 205 = tested on: COLO 205
RPMI-8226 = tested on: RPMI-8226
LOX IMVI = tested on: LOX IMVI
HCC 2998 = tested on: HCC 2998
HOP-62 = tested on: HOP-62
RXF 393 = tested on: RXF 393
T47D = tested on: T47D
HCT-116 = tested on: HCT-116

For `CC(=O)ONC(C(=O)C(C)(C)C)C(=O)C(C)(C)C`, the GI50 (OVCAR-8) was > 100 µM (inactive), the GI50 (SN12C) was > 100 µM (inactive) and the GI50 (U-251) was > 100 µM (inactive). The GI50 (IGROV-1) was > 100 µM (inactive), the GI50 (TK-10) was > 100 µM (inactive) and the GI50 (SW-620) was > 100 µM (inactive). For the same molecule, the GI50 (K562) was > 100 µM (inactive), the GI50 (SF-268) was > 100 µM (inactive) and the GI50 (SK-MEL-2) was > 100 µM (inactive). The GI50 (UO-31) was > 100 µM (inactive), the GI50 (OVCAR-4) was > 100 µM (inactive) and the GI50 (SF-295) was > 100 µM (inactive). The GI50 (MOLT-4) was > 100 µM (inactive), the GI50 (A498) was > 100 µM (inactive) and the GI50 (NCI-H226) was > 100 µM (inactive). The GI50 (ACHN) was > 100 µM (inactive), the GI50 (EKVX) was > 100 µM (inactive) and the GI50 (SK-MEL-5) was > 100 µM (inactive). For the same molecule, the GI50 (HL-60) was > 100 µM (inactive), the GI50 (KM12) was > 100 µM (inactive) and the GI50 (HT-29) was > 100 µM (inactive). The GI50 (CCRF-CEM) was > 100 µM (inactive), the GI50 (SK-OV-3) was > 100 µM (inactive) and the GI50 (NCI/ADR-RES) was > 100 µM (inactive). For the same molecule, the GI50 (UACC-257) was > 100 µM (inactive), the GI50 (DU-145) was > 100 µM (inactive) and the GI50 (HCT-15) was greater than 100 µM. The GI50 (Malme-3M) was > 100 µM (inactive), the GI50 (OVCAR-3) was > 100 µM (inactive) and the GI50 (NCI-H460) was > 100 µM (inactive). The GI50 (MCF7) was > 100 µM (inactive), the GI50 (MDA-N) was > 100 µM (inactive) and the GI50 (SF-539) was > 100 µM (inactive). For the same molecule, the GI50 (Hs-578T) was > 100 µM (inactive), the GI50 (OVCAR-5) was > 100 µM (inactive) and the GI50 (CAKI-1) was > 100 µM (inactive). The GI50 (MDA-MB-231) was > 100 µM (inactive), the GI50 (NCI-H522) was > 100 µM (inactive) and the GI50 (SK-MEL-28) was > 100 µM (inactive). For the same molecule, the GI50 (NCI-H23) was > 100 µM (inactive), the GI50 (M14) was > 100 µM (inactive) and the GI50 (786-0) was > 100 µM (inactive). The GI50 (A549) was > 100 µM (inactive), the GI50 (SNB-75) was > 100 µM (inactive) and the GI50 (HOP-92) was > 100 µM (inactive). The GI50 (SNB-19) was > 100 µM (inactive), the GI50 (PC-3) was > 100 µM (inactive) and the GI50 (COLO 205) was > 100 µM (inactive). For the same molecule, the GI50 (RPMI-8226) was > 100 µM (inactive), the GI50 (LOX IMVI) was > 100 µM (inactive) and the GI50 (HCC 2998) was > 100 µM (inactive). For the same molecule, the GI50 (HOP-62) was > 100 µM (inactive), the GI50 (RXF 393) was > 100 µM (inactive) and the GI50 (T47D) was > 100 µM (inactive). The GI50 (HCT-116) was > 100 µM (inactive).
